Results taken from patent publication US9833497B2, “Human originated EGF domain proteins and use of the same” (CHENGDU SOURCEBIO LIMITED-LIABILITY COMPANY, priority 2013, dated 2017).

Key:
Assay type in all cases: cell-based
E. coli BL21 = assay: MIC against Gram-negative bacteria: E. coli BL21; conditions: 96-well plate, 5×10^5 CFU/mL, 37° C., 10 h
How it was run: (§1)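 LB broth cultures at McFarland 0.5, spun down, resuspended, diluted to 5×10^5 CFU/mL final. Two-fold serial dilutions of purified human EGF domain proteins, triplicate. 37° C, 175 rpm shaking. Endpoint: no visible growth.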

Serratia marcescens = assay: MIC against Gram-negative bacteria: Serratia marcescens; conditions: 96-well plate, 5×10^5 CFU/mL, 37° C., 10 h
How it was run: as §1

Pseudomonas aeruginosa = assay: MIC against Gram-negative bacteria: Pseudomonas aeruginosa; conditions: 96-well plate, 5×10^5 CFU/mL, 37° C., 10 h
How it was run: as §1

Proteus vulgaris = assay: MIC against Gram-negative bacteria: Proteus vulgaris; conditions: 96-well plate, 5×10^5 CFU/mL, 37° C., 10 h
How it was run: as §1

Citrobacter diversus = assay: MIC against Gram-negative bacteria: Citrobacter diversus; conditions: 96-well plate, 5×10^5 CFU/mL, 37° C., 10 h
How it was run: as §1

Enterobacter cloacae = assay: MIC against Gram-negative bacteria: Enterobacter cloacae; conditions: 96-well plate, 5×10^5 CFU/mL, 37° C., 10 h
How it was run: as §1

Klebsiella pneumonia = assay: MIC against Gram-negative bacteria: Klebsiella pneumonia; conditions: 96-well plate, 5×10^5 CFU/mL, 37° C., 10 h
How it was run: as §1

Moraxella catarrhalis = assay: MIC against Gram-negative bacteria: Moraxella catarrhalis; conditions: 96-well plate, 5×10^5 CFU/mL, 37° C., 10 h
How it was run: as §1

E. coli DH5α = assay: Antibacterial activity: MIC and growth curve against E. coli DH5α in 96-well plate; conditions: minimal inhibitory concentration against E. coli DH5α; 96-well plate, 5×10^5 CFU/mL, 37° C., judged after 8 h
How it was run: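 MIC taken as lowest protein level with no bacterial growth, tracked by A600 every 30 min during 37 °C, 175 rpm culture. Two-fold protein series 50-12.5 μg/mL final, triplicate wells, against 5×10^5 CFU/mL of LB-washed mid-log cells.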

Aeromonas hydrophila = assay: MIC against Gram-negative bacteria: Aeromonas hydrophila; conditions: 96-well plate, 5×10^5 CFU/mL, 37° C., 10 h
How it was run: as §1

Proteus mirabilis = assay: MIC against Gram-negative bacteria: Proteus mirabilis; conditions: 96-well plate, 5×10^5 CFU/mL, 37° C., 10 h
How it was run: as §1

PRT619 (CNCQGGGACDPDTGDCYSGDENPDIECADCPIGFYNDPHDPRSCKP; listed as Homo sapiens)
MIC E. coli BL21 (E. coli BL21): 25 µg/mL
MIC S. marcescens (Serratia marcescens): 50 µg/mL
MIC P. aeruginosa (Pseudomonas aeruginosa): 50 µg/mL
MIC P. vulgaris (Proteus vulgaris): 25 µg/mL
MIC C. diversus (Citrobacter diversus): 50 µg/mL
MIC E. cloacae (Enterobacter cloacae): 12.5 µg/mL
MIC K. pneumonia (Klebsiella pneumonia): 25 µg/mL
MIC M. catarrhalis (Moraxella catarrhalis): 25 µg/mL
MIC (E. coli DH5α): 12.5 µg/mL
MIC A. hydrophila (Aeromonas hydrophila): 25 µg/mL
MIC P. mirabilis (Proteus mirabilis): 12.5 µg/mL

PRT654 (DVNECMGEEHCAPHGECLNSHGSFFCLCAPGFVSAEGGTSCQ; listed as Homo sapiens)
MIC E. coli BL21 (E. coli BL21): 50 µg/mL
MIC S. marcescens (Serratia marcescens): 25 µg/mL
MIC P. aeruginosa (Pseudomonas aeruginosa): 12.5 µg/mL
MIC P. vulgaris (Proteus vulgaris): 12.5 µg/mL
MIC C. diversus (Citrobacter diversus): 12.5 µg/mL
MIC E. cloacae (Enterobacter cloacae): 12.5 µg/mL
MIC K. pneumonia (Klebsiella pneumonia): 50 µg/mL
MIC M. catarrhalis (Moraxella catarrhalis): 50 µg/mL
MIC (E. coli DH5α): 12.5 µg/mL
MIC A. hydrophila (Aeromonas hydrophila): 50 µg/mL
MIC P. mirabilis (Proteus mirabilis): 25 µg/mL

PRT455 (DVNECSQENGGCLQICHNKPGSFHCSCHSGFELSSDGRTCQ; listed as Homo sapiens)
MIC against E. coli BL21 (E. coli BL21): 12.5 µg/mL
MIC against S. marcescens (Serratia marcescens): 50 µg/mL
MIC against P. aeruginosa (Pseudomonas aeruginosa): 50 µg/mL
MIC against P. vulgaris (Proteus vulgaris): 100 µg/mL
MIC against C. diversus (Citrobacter diversus): 50 µg/mL
MIC against E. cloacae (Enterobacter cloacae): 50 µg/mL
MIC against K. pneumonia (Klebsiella pneumonia): 12.5 µg/mL
MIC against M. catarrhalis (Moraxella catarrhalis): 12.5 µg/mL
MIC (E. coli DH5α): 50 µg/mL
MIC against A. hydrophila (Aeromonas hydrophila): 12.5 µg/mL
MIC against P. mirabilis (Proteus mirabilis): 50 µg/mL

PRT1229 (DINECETGLAKCKYKAYCRNKVGGYICSCLVKYTLFNFLAGIIDYDHPDCY; listed as Homo sapiens)
MIC against E. coli BL21 (E. coli BL21; E. coli BL21): 12.5 µg/mL
MIC against S. marcescens (Serratia marcescens; Serratia marcescens): 12.5 µg/mL
MIC against P. aeruginosa (Pseudomonas aeruginosa; Pseudomonas aeruginosa): 12.5 µg/mL
MIC against P. vulgaris (Proteus vulgaris; Proteus vulgaris): 12.5 µg/mL
MIC against C. diversus (Citrobacter diversus; Citrobacter diversus): 12.5 µg/mL
MIC against E. cloacae (Enterobacter cloacae; Enterobacter cloacae): 25 µg/mL
MIC against K. pneumonia (Klebsiella pneumonia; Klebsiella pneumonia): 12.5 µg/mL
MIC against M. catarrhalis (Moraxella catarrhalis; Moraxella catarrhalis): 12.5 µg/mL
MIC (E. coli DH5α): 25 µg/mL
MIC against A. hydrophila (Aeromonas hydrophila; Aeromonas hydrophila): 12.5 µg/mL
MIC against P. mirabilis (Proteus mirabilis; Proteus mirabilis): 12.5 µg/mL

PRT495 (CDCDLRGTSGDACNLEQGLCGCVEETGACPCKENVFGPQCNECREGTFALRADNPLGCSP; listed as Homo sapiens)
MIC against E. coli BL21 (E. coli BL21): 50 µg/mL
MIC against S. marcescens (Serratia marcescens): 25 µg/mL
MIC against P. aeruginosa (Pseudomonas aeruginosa): 25 µg/mL
MIC against P. vulgaris (Proteus vulgaris): 12.5 µg/mL
MIC against C. diversus (Citrobacter diversus): 25 µg/mL
MIC against E. cloacae (Enterobacter cloacae): 25 µg/mL
MIC against K. pneumonia (Klebsiella pneumonia): 12.5 µg/mL
MIC against M. catarrhalis (Moraxella catarrhalis): 12.5 µg/mL
MIC (E. coli DH5α): 25 µg/mL
MIC against A. hydrophila (Aeromonas hydrophila): 50 µg/mL
MIC against P. mirabilis (Proteus mirabilis): 25 µg/mL

PRT112 (DINECTDFVDVPCSHFCNNFIGGYFCSCPPEYFLHDDMKNCG; listed as Homo sapiens)
MIC (μg/mL) E. coli BL21 (E. coli BL21; E. coli BL21): 12.5 µg/mL
MIC (μg/mL) S. marcescens (Serratia marcescens; Serratia marcescens): 50 µg/mL
MIC (μg/mL) P. aeruginosa (Pseudomonas aeruginosa; Pseudomonas aeruginosa): 50 µg/mL
MIC (μg/mL) P. vulgaris (Proteus vulgaris; Proteus vulgaris): 12.5 µg/mL
MIC (μg/mL) C. diversus (Citrobacter diversus; Citrobacter diversus): 12.5 µg/mL
MIC (μg/mL) E. cloacae (Enterobacter cloacae; Enterobacter cloacae): 12.5 µg/mL
MIC (μg/mL) K. pneumonia (Klebsiella pneumonia; Klebsiella pneumonia): 12.5 µg/mL
MIC (μg/mL) M. catarrhalis (Moraxella catarrhalis; Moraxella catarrhalis): 12.5 µg/mL
MIC (E. coli DH5α): 50 µg/mL
MIC (μg/mL) A. hydrophila (Aeromonas hydrophila; Aeromonas hydrophila): 12.5 µg/mL
MIC (μg/mL) P. mirabilis (Proteus mirabilis; Proteus mirabilis): 50 µg/mL

PRT491 (LDICSKNPCHNGGLCEEISQEVRGDVFPSYTCTCLKGYAGNHCE; listed as Homo sapiens)
MIC against E. coli BL21 (E. coli BL21): 25 µg/mL
MIC against S. marcescens (Serratia marcescens): 12.5 µg/mL
MIC against P. aeruginosa (Pseudomonas aeruginosa): 50 µg/mL
MIC against P. vulgaris (Proteus vulgaris): 25 µg/mL
MIC against C. diversus (Citrobacter diversus): 50 µg/mL
MIC against E. cloacae (Enterobacter cloacae): 50 µg/mL
MIC against K. pneumonia (Klebsiella pneumonia): 12.5 µg/mL
MIC against M. catarrhalis (Moraxella catarrhalis): 12.5 µg/mL
MIC (E. coli DH5α): 12.5 µg/mL
MIC against A. hydrophila (Aeromonas hydrophila): 100 µg/mL
MIC against P. mirabilis (Proteus mirabilis): 50 µg/mL
